Laboratory results reported in patent US20220175762A1, “IMMUNE MODULATORY COMPOSITIONS AND METHODS FOR TREATING CANCERS” (Birdie Biopharmaceuticals, Inc., priority 2019, published 2022).

What was measured:
[1] = test system: C26 colon tumor cell line; assay: In vivo tumor cell killing, C26 syngeneic tumor model, cyclophosphamide with TLRL combination therapy; design: dose or concentration left out as unconfirmed; conditions: C26 cells s.c. in BALB/c mice; cyclophosphamide i.p., TLRL (resiquimod) i.v., or both; once weekly for three times; FIG. 1B
Description: FIG. 1A-D depicts evaluation of the antitumor effects of Cyclophosphamide/TLRL combination therapy in syngeneic tumor model. FIG. 1A: Scheme of therapy protocol developed to treat C26 tumor. The treatment was initiated at d10 with tumor size 100-120 mm^3 following tumor challenges, and was administered weekly for 3 cycles starting at day 10. FIG. 1B: Antitumor effects of systemic TLRL (Resiquimod) in C26 tumor model. 4×10^5 cells were inoculated subcutaneously in Balb/c mice. After the tumor was allowed to grow for 10 days, groups of 8 mice were treated with Vehicle or with intraperitoneally administration of 1 mg of Cyclophosphamide, or with intravenously administered 1.6 g of TLRL or combination therapy at the dose shown. The compound was administered weekly for three cycles. The data are represented by the median tumor volume measurements of each group. Data for each group of 8 mice are expressed as means±SD. Statistical comparisons were performed using Student's t-Test. […]
All BALB/c mice were maintained under specific pathogen free conditions and used between 6-16 weeks of age in accordance to the animal experimental guidelines set by the Institutional Animal Care and Use Committee. […] Tumor volumes were measured along three orthogonal axes (x, y, and z) and calculated as tumor volume=(xyz)/2. […]

[2] = test system: CD45^+ cell infiltration in C26 tumor; assay: Immunohistochemistry of CD45 positive cells in tumors of treated mice; format: in vivo; design: dose or concentration left out as unconfirmed; conditions: C26 tumor in Balb/c mice, tumor taken on second day of second weekly treatment, cyclophosphamide i.p., TLRL i.v., FIG. 2
Description: Histological characterization of CD45 positive cells were performed in treated mice. Tumor samples were obtained from mice treated with TLRL, cyclophosphamide or TLRL/cyclophosphamide. Histological sections were counterstained with hematoxylin and eosin (H&E).
Balb/c mice, 6-8 weeks of age, female, purchased from Vital River Beijing, C26 cells were injected s.c. in the back of anesthetized mice. Treatment was started when tumor volumes reached 100-120 mm^3, i.p. injections of cyclophosphamide or i.v. injections of 1.6 g of TLRL (resiquimod) or combination were given once weekly. On second day of second treatment, tissue specimens of the tumor from treated mice were surgically removed, fixed in 4% buffered formaldehyde for 24 h, processed into paraffin, then sectioned at 5 μm. For immunohistochemistry, tissue sections were deparaffinised followed by antigen-retrieval in Tris-EDTA buffer (0.01 M pH 9.0) at high temperature (water bath, 30 minutes at 98° C.). […] After washing with PBS three times, secondary antibody goat antibody rat HPR was applied. Standard DAB (3,3′-diaminobenzidine) kit was used for visualization and section was counterstained with H&E used according to the protocols recommended by the manufacturer.

[3] = test system: IFNα inducible genes MX2, ISG15 and IRF7; assay: IFNα inducible gene expression (quantitative RT-PCR) in draining lymph nodes and spleen of treated mice; format: in vivo; conditions: draining LNs and spleen of C26 tumor-bearing Balb/c mice, second day of second weekly treatment, FIG. 3
Description: Expression of IFNα inducible genes in dLN and spleen of treated mouse. RNA was isolated from draining lymph nodes and spleen after second treatment with TLRL or cyclophosphamide or combination therapy and relative expression of IFNα inducible genes MX2, ISG15 and IRF7 were determined by quantitative RT-PCR. Values indicate the mRNA expression of indicated IFNα inducible genes relative to housekeeping gene Actin.
Balb/c mice, 6-8 weeks of age, female, purchased from Vital River Beijing, C26 cells were injected s.c. in the back of anesthetized mice. Treatment was started when tumor volumes reached 100-120 mm^3, i.p. injections of cyclophosphamide or i.v. injections of […] of TLRL (resiquimod) or a combination of the treatments were given once weekly. On second day of second treatment, (that is, on the eighth day) draining LNs and spleen from treated mice were dissected and RNA was extracted using TRIzol reagent. After cDNA was reversed-transcribed, the quantitative Real-Time PCR was performed and IFNα inducible gene expression data were normalized relative to geometric mean of […] housekeeping genes (Actin): […]

Structure (SMILES)	effect in reducing tumor volume [1]	infiltration of CD45^+ cells in tumor microenvironment [2]	infiltration of CD45^+ cells in tumor microenvironment ([2]; listed as TLRL)	IFNα inducible gene expression (MX2, ISG15, IRF7) relative to Actin [3]	IFNα inducible gene expression (MX2, ISG15, IRF7) relative to Actin ([3]; listed as TLRL)
CCOCc1nc2c(N)nc3ccccc3c2n1CC(C)(C)O [TLRL (resiquimod), 4-amino-2-(ethoxymethyl)-a,a-di-methyl-1H-imidazo[4,5-c]quinoline-1-ethanol]	similar	significant numbers of CD45^+ cell were infiltrated	increased infiltration of activated immune cells (CD45^+)	Upregulating IFNα inducible gene clusters were observed	increased IFNα inducible gene expression
O=P1(N(CCCl)CCCl)NCCCO1 (stereo not drawn) [cyclophosphamide]	similar	–	–	–	–
